Where two headings read alike, the source gives them in different places.
Tests used:
Type in all cases: in vivo
[1] = test system: Euschistus heros; test: Euschistus heros (neotropical brown stink bug) feeding/contact activity; conditions: 120 h
Method: Euschistus heros (Neotropical Brown Stink Bug): Feeding/Contact Activity
Soybean leaves on agar in 24-well microtiter plates were sprayed with aqueous test solutions prepared from 10′000 ppm DMSO stock solutions. After drying the leaves were infested with N2 nymphs. The samples were assessed for mortality 5 days after infestation.

[2] = test system: Myzus persicae; test: Myzus persicae (green peach aphid) feeding/contact activity; conditions: foliar, 144 h
Method: Myzus persicae (Green Peach Aphid): Feeding/Contact Activity
(§1) Sunflower leaf discs were placed onto agar in a 24-well microtiter plate and sprayed with aqueous test solutions prepared from 10′000 ppm DMSO stock solutions. After drying, the leaf discs were infested with an aphid population of mixed ages. The samples were assessed for mortality 6 days after infestation.

[3] = test system: Spodoptera littoralis; test: Spodoptera littoralis (Egyptian cotton leaf worm) feeding/contact activity; conditions: foliar, 72 h
Method: Spodoptera littoralis (Egyptian cotton leaf worm): Feeding/contact activity Cotton leaf discs were placed onto agar in 24-well microtiter plates and sprayed with aqueous test solutions prepared from 10′000 ppm DMSO stock solutions. After drying the leaf discs were infested with five L1 larvae. The samples were assessed for mortality 3 days after infestation.

[4] = test system: Tetranychus urticae; test: Tetranychus urticae (two-spotted spider mite) feeding/contact activity; conditions: foliar, 192 h, read-out: mortality on mixed population (mobile stages)
Method: Tetranychus urticae (Two-Spotted Spider Mite): Feeding/Contact Activity
Bean leaf discs on agar in 24-well microtiter plates were sprayed with aqueous test solutions prepared from 10′000 ppm DMSO stock solutions. After drying the leaf discs were infested with a mite population of mixed ages. The samples were assessed for mortality on mixed population (mobile stages) 8 days after infestation.

[5] = test system: Diabrotica balteata; test: Diabrotica balteata (corn root worm) mortality test on maize sprouts; conditions: 96 h, application rate 200 ppm, L2 larvae on sprayed maize sprouts, assessed 4 days after infestation
Method: Diabrotica balteata (Corn Root Worm):
Maize sprouts placed onto an agar layer in 24-well microtiter plates were treated with aqueous test solutions prepared from 10′000 ppm DMSO stock solutions by spraying. After drying, the plates were infested with L2 larvae (6 to 10 per well). The samples were assessed for mortality 4 days after infestation.

[6] = test system: Plutella xylostella; test: Plutella xylostella (diamond back moth) feeding/contact activity; conditions: 120 h
Method: Plutella xylostella (Diamond Back Moth): Feeding/Contact Activity
24-well microtiter plates with artificial diet were treated with aqueous test solutions prepared from 10′000 ppm DMSO stock solutions by pipetting. After drying, the plates were infested with L2 larvae (10 to 15 per well). The samples were assessed for mortality 5 days after infestation.

[7] = test system: Thrips tabaci; test: Thrips tabaci (onion thrips) feeding/contact activity; conditions: foliar, 144 h
Method: Thrips tabaci (Onion Thrips): Feeding/Contact Activity
as §1, with “on” for “onto”, “in” for “in a”, “plates” for “plate”, “drying” for “drying,”, “a thrips” for “an aphid”

[8] = application rate 200 ppm, N2 nymphs on sprayed soybean leaves, assessed 5 days after infestation, read-out: mortality
[9] = application rate 200 ppm, aphid population of mixed ages on sprayed sunflower leaf discs, assessed 6 days after infestation, read-out: mortality
[10] = application rate 200 ppm, L1 larvae on sprayed cotton leaf discs, assessed 3 days after infestation, read-out: mortality
[11] = application rate 200 ppm, mite population of mixed ages on sprayed bean leaf discs, assessed 8 days after infestation
[12] = application rate 200 ppm, L2 larvae on treated artificial diet, assessed 5 days after infestation, read-out: mortality
[13] = application rate 200 ppm, thrips population of mixed ages on sprayed sunflower leaf discs, assessed 6 days after infestation, read-out: mortality

Measured: mortality at 200 ppm

Cn1nc(C(F)(F)C(F)(F)F)c(OC(F)F)c1-n1cc(-c2ccc(C(F)(F)F)c(C(=O)NC3(C#N)CC3)c2)cn1 [Compound 1, N-(1-cyanocyclopropyl)-5-[1-[4-(difluoromethoxy)-2-methyl-5-(1,1,2,2,2-pentafluoroethyl)pyrazol-3-yl]pyrazol-4-yl]-2-(trifluoromethyl)benzamide]
≥ 80%: [1]; [8] | [2]; [9] | [3]; [10] | [4]; [11] | [5] | [6]; [12] | [7]; [13]

CN(C(=O)c1cc(-c2cnn(-c3c(OC(F)F)c(C(F)(F)C(F)(F)F)nn3C)c2)ccc1C(F)(F)F)C1(C#N)CC1 [Compound 2, N-(1-cyanocyclopropyl)-5-[1-[4-(difluoromethoxy)-2-methyl-5-(1,1,2,2,2-pentafluoroethyl)pyrazol-3-yl]pyrazol-4-yl]-N-methyl-2-(trifluoromethyl)benzamide]
≥ 80%: [1]; [8] | [2]; [9] | [3]; [10] | [4]; [11] | [5] | [6]; [12] | [7]; [13]

CCN(C(=O)c1cc(-c2cnn(-c3c(OC(F)F)c(C(F)(F)C(F)(F)F)nn3C)c2)ccc1C(F)(F)F)C1(C#N)CC1 [Compound 3, N-(1-cyanocyclopropyl)-5-[1-[4-(difluoromethoxy)-2-methyl-5-(1,1,2,2,2-pentafluoroethyl)pyrazol-3-yl]pyrazol-4-yl]-N-ethyl-2-(trifluoromethyl)benzamide]
≥ 80%: [1]; [8] | [2]; [9] | [3]; [10] | [4]; [11] | [5] | [6]; [12] | [7]; [13]

Cn1nc(C(F)(F)C(F)(F)F)c(OC(F)F)c1-n1cc(-c2ccc(C(F)(F)F)c(C(=O)NC3CC3)c2)cn1 [Compound 4, N-cyclopropyl-5-[1-[4-(difluoromethoxy)-2-methyl-5-(1,1,2,2,2-pentafluoroethyl)pyrazol-3-yl]pyrazol-4-yl]-2-(trifluoromethyl)benzamide]
≥ 80%: [1]; [8] | [2]; [9] | [3]; [10] | [4]; [11] | [5] | [6]; [12] | [7]; [13]

Cn1nc(C(F)(F)C(F)(F)F)c(OC(F)F)c1-n1cc(-c2ccc(C(F)(F)F)c(C(=O)N(CC3CC3)C3(C#N)CC3)c2)cn1 [Compound 5, N-(1-cyanocyclopropyl)-N-(cyclopropylmethyl)-5-[1-[4-(difluoromethoxy)-2-methyl-5-(1,1,2,2,2-pentafluoroethyl)pyrazol-3-yl]pyrazol-4-yl]-2-(trifluoromethyl)benzamide]
≥ 80%: [1]; [8] | [2]; [9] | [3]; [10] | [6]; [12] | [7]; [13]

CC(=O)N(C(=O)c1cc(-c2cnn(-c3c(OC(F)F)c(C(F)(F)C(F)(F)F)nn3C)c2)ccc1C(F)(F)F)C1(C#N)CC1 [Compound 6, N-acetyl-N-(1-cyanocyclopropyl)-5-[1-[4-(difluoromethoxy)-2-methyl-5-(1,1,2,2,2-pentafluoroethyl)pyrazol-3-yl]pyrazol-4-yl]-2-(trifluoromethyl)benzamide]
≥ 80%: [1]; [8] | [2]; [9] | [3]; [10] | [4]; [11] | [6]; [12] | [7]; [13]

COCN(C(=O)c1cc(-c2cnn(-c3c(OC(F)F)c(C(F)(F)C(F)(F)F)nn3C)c2)ccc1C(F)(F)F)C1(C#N)CC1 [Compound 7, N-(1-cyanocyclopropyl)-5-[1-[4-(difluoromethoxy)-2-methyl-5-(1,1,2,2,2-pentafluoroethyl)pyrazol-3-yl]pyrazol-4-yl]-N-(methoxymethyl)-2-(trifluoromethyl)benzamide]
≥ 80%: [1]; [8] | [2]; [9] | [3]; [10] | [4]; [11] | [6]; [12] | [7]; [13]

Cn1nc(C(F)(F)C(F)(F)F)c(OC(F)F)c1-n1cc(-c2ccc(C(F)(F)F)c(C(=O)N(CC#N)C3(C#N)CC3)c2)cn1 [Compound 8, N-(1-cyanocyclopropyl)-N-(cyanomethyl)-5-[1-[4-(difluoromethoxy)-2-methyl-5-(1,1,2,2,2-pentafluoroethyl)pyrazol-3-yl]pyrazol-4-yl]-2-(trifluoromethyl)benzamide]
≥ 80%: [1]; [8] | [2]; [9] | [3]; [10] | [4]; [11] | [6]; [12] | [7]; [13]

CCOC(=O)N(C(=O)c1cc(-c2cnn(-c3c(OC(F)F)c(C(F)(F)C(F)(F)F)nn3C)c2)ccc1C(F)(F)F)C1(C#N)CC1 [Compound 9, ethyl N-(1-cyanocyclopropyl)-N-[5-[1-[4-(difluoromethoxy)-2-methyl-5-(1,1,2,2,2-pentafluoroethyl)pyrazol-3-yl]pyrazol-4-yl]-2-(trifluoromethyl)benzoyl]carbamate]
≥ 80%: [1]; in Glycine max | [2] | [3] | [4] | [6] | [7]

C#CCN(C(=O)c1cc(-c2cnn(-c3c(OC(F)F)c(C(F)(F)C(F)(F)F)nn3C)c2)ccc1C(F)(F)F)C1(C#N)CC1 [Compound 10]
≥ 80%: [1]; [8] | [2]; [9] | [3]; [10] | [4]; [11] | [6]; [12] | [7]; [13]
